Assay results reported in patent US20100152215A1, “METHODS OF IDENTIFYING ACTIVATORS OF LYN KINASE” (MELIOR PHARMACEUTICALS I, INC., priority 2007, published 2010).

Experiments:
Experiment in all cases: kinase screen for inhibition or activation
Type in all cases: biochemical
AMPK = details: 10 μM, positive = activation, negative = inhibition
Procedure: (§1) A kinase screen was conducted in which Compound 102 (10 μM) was screened against 49 kinases for inhibition or activation. Any kinase that was activated or inhibited by at least 20% was considered to be a significant effect. Of the 49 kinases screened, Lyn kinase was activated by 51%. In a repeat experiment, Lyn kinase activity was increased by 57%.

Abl = Abl (Homo sapiens, UniProt P00519); details: 10 μM
Chain of Abl (P00519 whole entry, species assumed): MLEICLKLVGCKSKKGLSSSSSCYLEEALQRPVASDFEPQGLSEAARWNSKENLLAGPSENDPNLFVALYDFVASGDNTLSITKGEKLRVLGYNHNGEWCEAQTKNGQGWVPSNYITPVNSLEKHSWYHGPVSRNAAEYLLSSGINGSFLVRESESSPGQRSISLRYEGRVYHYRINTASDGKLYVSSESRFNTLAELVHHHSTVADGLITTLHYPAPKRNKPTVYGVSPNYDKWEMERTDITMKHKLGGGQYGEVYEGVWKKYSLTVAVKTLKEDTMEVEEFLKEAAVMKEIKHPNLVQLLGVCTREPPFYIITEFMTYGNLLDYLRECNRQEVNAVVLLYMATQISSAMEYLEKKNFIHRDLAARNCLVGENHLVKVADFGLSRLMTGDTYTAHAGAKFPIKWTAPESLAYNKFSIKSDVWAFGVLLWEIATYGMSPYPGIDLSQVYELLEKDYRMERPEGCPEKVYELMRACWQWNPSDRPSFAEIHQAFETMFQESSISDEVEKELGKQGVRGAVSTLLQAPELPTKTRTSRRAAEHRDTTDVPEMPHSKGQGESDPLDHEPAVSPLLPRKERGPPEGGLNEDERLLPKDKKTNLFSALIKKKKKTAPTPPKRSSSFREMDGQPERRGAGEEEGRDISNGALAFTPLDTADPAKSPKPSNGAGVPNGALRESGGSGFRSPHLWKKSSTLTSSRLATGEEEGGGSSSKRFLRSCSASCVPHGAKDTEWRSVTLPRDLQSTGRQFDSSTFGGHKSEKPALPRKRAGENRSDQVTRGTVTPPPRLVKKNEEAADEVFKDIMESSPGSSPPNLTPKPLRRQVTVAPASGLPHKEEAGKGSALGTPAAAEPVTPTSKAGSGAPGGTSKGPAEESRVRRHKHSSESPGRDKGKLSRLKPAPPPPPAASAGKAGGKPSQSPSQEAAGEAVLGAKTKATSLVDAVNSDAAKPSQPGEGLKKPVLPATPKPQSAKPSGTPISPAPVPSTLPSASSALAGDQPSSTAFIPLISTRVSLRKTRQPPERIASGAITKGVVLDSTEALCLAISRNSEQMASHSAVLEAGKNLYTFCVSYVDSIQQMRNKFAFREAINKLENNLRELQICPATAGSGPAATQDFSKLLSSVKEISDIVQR
Procedure: as §1

Akt1 = Akt1 (Homo sapiens, UniProt P31749); details: 10 μM
Chain of Akt1 (P31749 whole entry, species assumed): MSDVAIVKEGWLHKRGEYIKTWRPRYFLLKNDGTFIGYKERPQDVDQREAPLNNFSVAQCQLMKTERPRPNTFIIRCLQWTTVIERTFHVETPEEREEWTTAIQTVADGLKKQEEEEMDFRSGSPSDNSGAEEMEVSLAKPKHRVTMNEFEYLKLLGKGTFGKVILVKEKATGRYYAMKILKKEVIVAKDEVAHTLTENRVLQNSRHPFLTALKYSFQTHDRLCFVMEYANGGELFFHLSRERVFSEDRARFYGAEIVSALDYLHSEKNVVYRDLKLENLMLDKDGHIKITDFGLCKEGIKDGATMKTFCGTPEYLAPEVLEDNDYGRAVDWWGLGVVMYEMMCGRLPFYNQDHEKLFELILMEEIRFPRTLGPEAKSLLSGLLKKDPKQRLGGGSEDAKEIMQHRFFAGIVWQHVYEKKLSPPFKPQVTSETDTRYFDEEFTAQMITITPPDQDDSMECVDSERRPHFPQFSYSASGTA
Procedure: as §1

Akt2 = Akt2 (Homo sapiens, UniProt P31751); details: 10 μM
Procedure: as §1

AurA = AurA (Homo sapiens, UniProt O14965); details: 10 μM
Procedure: as §1

BTK = BTK (Homo sapiens, UniProt Q06187); details: 10 μM
Procedure: as §1

CDK2/cyclinA = CDK2/cyclinA (Homo sapiens, UniProt P24941); details: 10 μM
Procedure: as §1

CHK1 = CHK1 (Homo sapiens, UniProt O14757); details: 10 μM
Procedure: as §1

CHK2 = CHK2 (Homo sapiens, UniProt O96017); details: 10 μM
Procedure: as §1

CK1d = CK1d (Homo sapiens, UniProt P48730); details: 10 μM
Procedure: as §1

CaMK2a = CaMK2a (Homo sapiens, UniProt Q9UQM7); details: 10 μM
Procedure: as §1

CaMK4 = CaMK4 (Homo sapiens, UniProt Q16566); details: 10 μM
Procedure: as §1

EphA2 = EphA2 (Homo sapiens, UniProt P29317); details: 10 μM
Procedure: as §1

FGFR3 = FGFR3 (Homo sapiens, UniProt P22607); details: 10 μM
Procedure: as §1

Flt3 = Flt3 (Homo sapiens, UniProt P36888); details: 10 μM
Procedure: as §1

Fyn = Fyn (Homo sapiens, UniProt P06241); details: 10 μM
Procedure: as §1

GSK3b = GSK3b (Homo sapiens, UniProt P49841); details: 10 μM
Procedure: as §1

IGF1R = IGF1R (Homo sapiens, UniProt P08069)
Chain of IGF1R (P08069 31-1367, species assumed): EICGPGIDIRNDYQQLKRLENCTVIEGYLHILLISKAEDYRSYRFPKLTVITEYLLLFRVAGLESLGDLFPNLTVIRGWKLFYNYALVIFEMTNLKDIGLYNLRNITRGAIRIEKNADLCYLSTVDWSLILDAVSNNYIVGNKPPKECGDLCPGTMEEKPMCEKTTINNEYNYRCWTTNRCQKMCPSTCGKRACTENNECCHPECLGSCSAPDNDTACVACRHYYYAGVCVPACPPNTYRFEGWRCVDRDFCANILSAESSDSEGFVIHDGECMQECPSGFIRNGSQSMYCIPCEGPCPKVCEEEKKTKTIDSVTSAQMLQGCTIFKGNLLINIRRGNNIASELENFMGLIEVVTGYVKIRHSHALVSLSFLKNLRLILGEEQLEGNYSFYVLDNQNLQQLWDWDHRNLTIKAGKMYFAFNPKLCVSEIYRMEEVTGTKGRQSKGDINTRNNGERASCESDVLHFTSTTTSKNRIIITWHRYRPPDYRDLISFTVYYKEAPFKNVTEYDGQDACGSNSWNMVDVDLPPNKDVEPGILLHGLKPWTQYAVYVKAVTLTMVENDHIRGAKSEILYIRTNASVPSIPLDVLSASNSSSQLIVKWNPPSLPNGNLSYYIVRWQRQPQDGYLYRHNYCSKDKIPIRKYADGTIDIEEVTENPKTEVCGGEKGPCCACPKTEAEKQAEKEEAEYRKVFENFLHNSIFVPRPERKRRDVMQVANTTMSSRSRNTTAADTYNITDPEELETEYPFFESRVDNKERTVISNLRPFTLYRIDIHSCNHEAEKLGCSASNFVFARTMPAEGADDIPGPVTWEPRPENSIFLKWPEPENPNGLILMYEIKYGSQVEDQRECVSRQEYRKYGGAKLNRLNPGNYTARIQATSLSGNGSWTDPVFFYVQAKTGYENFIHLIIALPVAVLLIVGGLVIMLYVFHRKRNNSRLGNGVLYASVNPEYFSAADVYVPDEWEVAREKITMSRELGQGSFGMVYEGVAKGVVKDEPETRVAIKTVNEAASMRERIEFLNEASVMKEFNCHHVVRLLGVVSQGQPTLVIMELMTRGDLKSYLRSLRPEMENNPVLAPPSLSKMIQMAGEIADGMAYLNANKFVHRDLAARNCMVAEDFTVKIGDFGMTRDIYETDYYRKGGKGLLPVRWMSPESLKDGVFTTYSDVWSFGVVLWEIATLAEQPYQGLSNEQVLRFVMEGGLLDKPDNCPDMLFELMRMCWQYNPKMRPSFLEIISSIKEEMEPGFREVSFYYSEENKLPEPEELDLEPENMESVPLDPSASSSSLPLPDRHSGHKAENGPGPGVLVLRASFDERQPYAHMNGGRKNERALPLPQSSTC
Procedure: as §1

IKKb = IKKb (Homo sapiens, UniProt O14920); details: 10 μM
Procedure: as §1

IRAK4 = IRAK4 (Homo sapiens, UniProt Q9NWZ3); details: 10 μM
Procedure: as §1

InsR = InsR (Homo sapiens, UniProt P06213); details: 10 μM
Chain of InsR (P06213 28-1382, species assumed): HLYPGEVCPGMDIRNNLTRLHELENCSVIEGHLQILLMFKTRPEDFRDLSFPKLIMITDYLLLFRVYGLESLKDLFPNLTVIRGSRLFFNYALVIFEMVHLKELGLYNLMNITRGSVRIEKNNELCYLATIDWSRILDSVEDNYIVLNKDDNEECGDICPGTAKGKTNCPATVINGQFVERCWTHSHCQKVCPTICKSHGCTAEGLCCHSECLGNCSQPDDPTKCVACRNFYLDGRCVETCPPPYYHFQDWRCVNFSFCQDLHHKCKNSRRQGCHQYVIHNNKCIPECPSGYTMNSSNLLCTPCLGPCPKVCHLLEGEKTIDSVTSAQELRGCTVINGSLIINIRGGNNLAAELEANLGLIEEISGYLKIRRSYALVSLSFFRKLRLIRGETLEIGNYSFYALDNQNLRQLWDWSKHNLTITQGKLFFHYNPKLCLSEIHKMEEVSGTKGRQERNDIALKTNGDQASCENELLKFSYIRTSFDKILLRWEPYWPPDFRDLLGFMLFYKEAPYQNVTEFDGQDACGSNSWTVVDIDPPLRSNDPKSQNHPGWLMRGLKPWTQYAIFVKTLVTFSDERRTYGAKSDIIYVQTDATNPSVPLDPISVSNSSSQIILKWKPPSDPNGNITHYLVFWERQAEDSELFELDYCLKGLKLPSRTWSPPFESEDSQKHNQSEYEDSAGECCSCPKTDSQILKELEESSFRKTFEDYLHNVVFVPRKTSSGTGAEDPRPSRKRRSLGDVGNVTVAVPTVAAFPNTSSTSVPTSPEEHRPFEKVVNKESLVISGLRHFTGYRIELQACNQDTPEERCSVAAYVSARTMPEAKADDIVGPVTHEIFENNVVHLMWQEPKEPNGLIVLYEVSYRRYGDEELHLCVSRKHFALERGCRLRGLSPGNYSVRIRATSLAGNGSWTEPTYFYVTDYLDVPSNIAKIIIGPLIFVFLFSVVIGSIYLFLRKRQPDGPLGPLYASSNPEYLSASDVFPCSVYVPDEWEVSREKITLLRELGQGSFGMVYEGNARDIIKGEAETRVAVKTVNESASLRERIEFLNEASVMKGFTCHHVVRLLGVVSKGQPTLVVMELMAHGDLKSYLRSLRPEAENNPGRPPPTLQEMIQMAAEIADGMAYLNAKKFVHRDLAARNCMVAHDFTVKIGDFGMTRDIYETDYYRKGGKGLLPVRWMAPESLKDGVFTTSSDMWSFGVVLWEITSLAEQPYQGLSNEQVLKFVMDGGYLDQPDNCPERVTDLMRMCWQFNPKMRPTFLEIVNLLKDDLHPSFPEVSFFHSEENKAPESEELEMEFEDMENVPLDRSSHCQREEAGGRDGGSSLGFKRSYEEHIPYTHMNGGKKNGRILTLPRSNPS
Procedure: as §1

JNK2 = JNK2 (Homo sapiens, UniProt P45984); details: 10 μM
Procedure: as §1

KDR (FLK1, VEGFR2) = KDR (FLK1, VEGFR2) (Homo sapiens, UniProt P35968); details: 10 μM
Procedure: as §1

Lck = Lck (Homo sapiens, UniProt P06239); details: 10 μM
Procedure: as §1

Lyn = Lyn (Homo sapiens, UniProt P07948); details: 10 μM
Chain of Lyn (P07948 whole entry): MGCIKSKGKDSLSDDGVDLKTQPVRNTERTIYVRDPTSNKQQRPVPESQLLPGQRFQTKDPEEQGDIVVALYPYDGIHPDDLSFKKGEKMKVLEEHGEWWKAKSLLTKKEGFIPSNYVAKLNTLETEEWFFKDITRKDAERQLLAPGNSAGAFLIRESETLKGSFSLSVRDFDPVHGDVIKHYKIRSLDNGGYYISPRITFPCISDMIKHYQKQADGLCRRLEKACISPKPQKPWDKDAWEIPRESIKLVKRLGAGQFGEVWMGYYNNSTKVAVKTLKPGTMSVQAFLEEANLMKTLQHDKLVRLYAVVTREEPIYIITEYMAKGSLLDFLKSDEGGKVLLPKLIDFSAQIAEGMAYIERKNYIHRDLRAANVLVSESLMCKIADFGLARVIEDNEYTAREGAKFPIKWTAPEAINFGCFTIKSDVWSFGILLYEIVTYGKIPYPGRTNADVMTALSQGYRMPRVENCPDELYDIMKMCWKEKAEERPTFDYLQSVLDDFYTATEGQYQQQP
Procedure: as §1

MAPK1 = MAPK1 (Homo sapiens, UniProt P28482); details: 10 μM
Procedure: as §1

MAPK14 (P38) = MAPK14 (P38) (Homo sapiens, UniProt Q16539); details: 10 μM
Procedure: as §1

MAPK3 (p38) = details: 10 μM
Procedure: as §1

MAPKAP2 = MAPKAP2 (Homo sapiens, UniProt P49137); details: 10 μM
Procedure: as §1

COMPOUND 102 ACTIVITY (% KINASE ACTIVITY) (AMPK): −0.95%
COMPOUND 102 ACTIVITY (% KINASE ACTIVITY) (Abl): −4.04%
COMPOUND 102 ACTIVITY (% KINASE ACTIVITY) (Akt1): 1.51%
COMPOUND 102 ACTIVITY (% KINASE ACTIVITY) (Akt2): −6.83%
COMPOUND 102 ACTIVITY (% KINASE ACTIVITY) (AurA): −12.21%
COMPOUND 102 ACTIVITY (% KINASE ACTIVITY) (BTK): 10%
COMPOUND 102 ACTIVITY (% KINASE ACTIVITY) (CDK2/cyclinA): −3.93%
COMPOUND 102 ACTIVITY (% KINASE ACTIVITY) (CHK1): 0.87%
COMPOUND 102 ACTIVITY (% KINASE ACTIVITY) (CHK2): −6.17%
COMPOUND 102 ACTIVITY (% KINASE ACTIVITY) (CK1d): −1.5%
COMPOUND 102 ACTIVITY (% KINASE ACTIVITY) (CaMK2a): 0.08%
COMPOUND 102 ACTIVITY (% KINASE ACTIVITY) (CaMK4): 17.35%
COMPOUND 102 ACTIVITY (% KINASE ACTIVITY) (EphA2): 1.03%
COMPOUND 102 ACTIVITY (% KINASE ACTIVITY) (FGFR3): −1.58%
COMPOUND 102 ACTIVITY (% KINASE ACTIVITY) (Flt3): 7.34%
COMPOUND 102 ACTIVITY (% KINASE ACTIVITY) (Fyn): −4.64%
COMPOUND 102 ACTIVITY (% KINASE ACTIVITY) (GSK3b): 2.47%
COMPOUND 102 ACTIVITY (% KINASE ACTIVITY) (IGF1R; IGF1R, 10 μM): −20.18%
inhibition at 10 µM (IGF1R; inhibition, read-out: insulin-like growth factor receptor activity inhibited by): 20.1%
COMPOUND 102 ACTIVITY (% KINASE ACTIVITY) (IKKb): −6.26%
COMPOUND 102 ACTIVITY (% KINASE ACTIVITY) (IRAK4): 2.25%
COMPOUND 102 ACTIVITY (% KINASE ACTIVITY) (InsR): 16.92%
COMPOUND 102 ACTIVITY (% KINASE ACTIVITY) (JNK2): −4.8%
COMPOUND 102 ACTIVITY (% KINASE ACTIVITY) (KDR (FLK1, VEGFR2)): 0%
COMPOUND 102 ACTIVITY (% KINASE ACTIVITY) (Lck): 6.28%
COMPOUND 102 ACTIVITY (% KINASE ACTIVITY) (Lyn; Lyn (repeat), repeat experiment, activation): 57%
COMPOUND 102 ACTIVITY (% KINASE ACTIVITY) (Lyn; Lyn (repeat), repeat experiment, activation, listed as COMPOUND 102, 10 µM): 57.11%
COMPOUND 102 ACTIVITY (% KINASE ACTIVITY) (Lyn; Lyn, first screen, activation): 51%
COMPOUND 102 ACTIVITY (% KINASE ACTIVITY) (Lyn; Lyn, first screen, activation, listed as COMPOUND 102, 10 µM): 51.05%
COMPOUND 102 ACTIVITY (% KINASE ACTIVITY) (Lyn; Lyn, third Lyn line of the table): 57%
COMPOUND 102 ACTIVITY (% KINASE ACTIVITY) (MAPK1): 0.6%
COMPOUND 102 ACTIVITY (% KINASE ACTIVITY) (MAPK14 (P38)): 1.74%
COMPOUND 102 ACTIVITY (% KINASE ACTIVITY) (MAPK3 (p38)): −6.05%
COMPOUND 102 ACTIVITY (% KINASE ACTIVITY) (MAPKAP2): −13.04%
Structure (SMILES): Cc1cccc(Oc2cnc(=O)[nH]c2)c1 [Compound 102]
